Activity calls are given as the source filed them.
Tests used:
[1] = target: T1, CAAX prenyl protease 2 (Saccharomyces cerevisiae S288c, UniProt Q03530); type: biochemical
T1 sequence (Q03530 whole entry): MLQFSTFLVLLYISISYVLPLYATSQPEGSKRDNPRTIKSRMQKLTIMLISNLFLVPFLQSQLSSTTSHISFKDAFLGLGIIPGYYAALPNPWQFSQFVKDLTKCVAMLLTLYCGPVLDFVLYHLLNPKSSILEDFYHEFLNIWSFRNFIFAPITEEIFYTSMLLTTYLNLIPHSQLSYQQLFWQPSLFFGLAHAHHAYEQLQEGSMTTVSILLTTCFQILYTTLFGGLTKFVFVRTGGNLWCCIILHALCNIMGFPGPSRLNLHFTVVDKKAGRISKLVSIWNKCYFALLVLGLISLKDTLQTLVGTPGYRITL

[2] = system: HT-1080; assay: cytotoxicity in HT1080 fibrosarcoma cells, cell-based, fluorescence readout (AID 620); type: functional; details: Homo sapiens
[3] = target: T2, Microphthalmia-associated transcription factor (Homo sapiens, UniProt O75030); assay: TRPM1 promoter luciferase signal decrease, dose response, MITF inhibitor project, cell-based, SK-MEL-5, cherry-picked, set 3 (AID 493073); type: functional
T2 sequence (O75030 whole entry): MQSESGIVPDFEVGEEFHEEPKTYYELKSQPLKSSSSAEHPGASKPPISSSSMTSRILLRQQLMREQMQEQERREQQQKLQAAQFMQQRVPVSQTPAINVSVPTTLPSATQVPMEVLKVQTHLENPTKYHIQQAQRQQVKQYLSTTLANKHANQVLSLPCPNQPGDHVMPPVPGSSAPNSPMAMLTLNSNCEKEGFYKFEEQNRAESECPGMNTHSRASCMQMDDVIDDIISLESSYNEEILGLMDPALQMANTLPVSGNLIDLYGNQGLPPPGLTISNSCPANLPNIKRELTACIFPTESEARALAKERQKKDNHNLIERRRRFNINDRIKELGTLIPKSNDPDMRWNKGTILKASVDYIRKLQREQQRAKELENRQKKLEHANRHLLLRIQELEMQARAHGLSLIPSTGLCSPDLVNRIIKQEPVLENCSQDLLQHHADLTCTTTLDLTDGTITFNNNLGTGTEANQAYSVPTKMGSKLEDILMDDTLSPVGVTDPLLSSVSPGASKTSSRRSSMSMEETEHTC

[4] = target: Luciferin 4-monooxygenase (Photinus pyralis, UniProt P08659); assay: Counter Screen for Luciferase-based Assay Positives. [Related pubchem assays: 620, 618, 411 ]
[5] = target: Peroxisome proliferator-activated receptor gamma/Nuclear receptor coactivator 3 (Homo sapiens, UniProt P37231); type: functional;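 also: agonist potency for raising coactivator recruitment to the receptor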
[6] = target: Peroxisome proliferator-activated receptor gamma/Nuclear receptor coactivator 2 (Homo sapiens, UniProt P37231); type: functional;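 also: agonist potency for raising coactivator recruitment to the receptor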
[7] = target: Peroxisome proliferator-activated receptor gamma/Nuclear receptor coactivator 1 (Homo sapiens, UniProt P37231); type: functional;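 also: agonist potency as compounds enhance coactivator SRC-1 recruitment to PPARgamma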
[8] = cytotoxicity toward DRD oncogenic fibroblasts, dose response, cell-based, non-viral oncogenic, luminescence (AID 1934); type: functional; details: Homo sapiens
[9] = system: BJ; assay: cells; type: functional, cell-based; details: Homo sapiens
[10] = system: BJ; assay: cytotoxicity toward BJ-TERT-LT-ST fibroblasts, dose response, cell-based, RAS-independent, luminescence (AID 1935); type: functional; details: Homo sapiens;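 also: BJ fibroblasts immortalized with TERT plus LT and ST oncogenes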
[11] = Luminescence Cell-Based Dose Response HTS to Identify Inhibitors of 5'UTR Stem-Loop Driven Prion Protein mRNA Translation in H4 Neuroglioblastoma Cells. [Related pubchem assays: 1827 (Project Summary), 1813 (Primary HTS)]; type: functional
[12] = system: BJ; assay: cytotoxicity toward BJ-TERT fibroblasts, dose response, cell-based, RAS-independent, luminescence (AID 1933); type: functional; details: Homo sapiens
[13] = target: Glyceraldehyde-3-phosphate dehydrogenase (Homo sapiens, UniProt P04406)
[14] = inhibitors of SNCA 5'UTR-driven reporter translation, confirmation, H4 neuroglioma cells, luminescence (AID 1988); type: functional, cell-based
[15] = inhibitors of firefly luciferase expression or activity, dose response, H4 neuroglioma cells, luminescence (AID 1990); type: functional, cell-based
[16] = cells; type: functional, cell-based
[17] = target: T3, Trace amine-associated receptor 1 (Homo sapiens, UniProt Q96RJ0); assay: Fluorescence-based cell-based high throughput dose response assay to identify agonists of the human trace amine associated receptor 1 (TAAR1).; type: functional
T3 sequence (Q96RJ0 whole entry): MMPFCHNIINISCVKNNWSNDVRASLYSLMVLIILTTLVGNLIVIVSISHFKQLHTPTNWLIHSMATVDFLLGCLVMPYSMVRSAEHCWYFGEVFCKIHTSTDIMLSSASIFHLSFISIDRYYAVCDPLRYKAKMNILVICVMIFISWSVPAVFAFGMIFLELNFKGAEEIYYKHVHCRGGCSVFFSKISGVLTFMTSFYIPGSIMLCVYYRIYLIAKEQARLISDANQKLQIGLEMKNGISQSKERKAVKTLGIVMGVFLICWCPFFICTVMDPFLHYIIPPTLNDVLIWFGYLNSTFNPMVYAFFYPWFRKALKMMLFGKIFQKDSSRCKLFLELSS

[18] = target: T3, Trace amine-associated receptor 1; assay: Counterscreen for agonists of the human trace amine associated receptor 1 (hTAAR1): Fluorescence-based cell-based high throughput dose response assay to identify hTAAR1 agonist that also desensitize TAAR1 receptor response.; type: functional
[19] = cells; type: functional, cell-based; remark: listed apart in the source
[20] = cytotoxicity in KRAS-transformed pancreatic duct cells, primary screen, cell-based, fluorescence, HTS (AID 431); type: functional; details: Homo sapiens;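 also: cell line used: HPDE-C7K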
[21] = cytotoxicity in HPDE-C7 cells, cell-based, fluorescence, HTS (AID 430); type: functional; details: Homo sapiens
[22] = microbe, parasite or virus in culture; type: functional; details: Mycobacterium tuberculosis
[23] = Vero E6 cell cytotoxicity, dose response, cytotoxicity control for non-replicating M. tuberculosis project, secondary assay (AID 492998); type: functional, VeroE6; details: Vero C1008
[24] = THP-1 cell cytotoxicity, dose response, cytotoxicity control for non-replicating M. tuberculosis project (AID 489025); type: functional
[25] = cells; type: functional
[26] = target: DNA dC->dU-editing enzyme APOBEC-3G (Homo sapiens, UniProt Q9HC16); assay: Dose Response confirmation of small molecule APOBEC3G DNA Deaminase Inhibitors via a fluorescence-based single-stranded DNA deaminase assay. [Related pubchem assays (depositor defined):AID493012, AID493028]; type: functional
[27] = target: Heat shock protein HSP 90-alpha (Homo sapiens, UniProt P07900); type: functional, organism-based
[28] = target: T4, DNA repair protein RAD52 homolog (Homo sapiens, UniProt P43351); type: functional, biochemical
T4 sequence (P43351 whole entry): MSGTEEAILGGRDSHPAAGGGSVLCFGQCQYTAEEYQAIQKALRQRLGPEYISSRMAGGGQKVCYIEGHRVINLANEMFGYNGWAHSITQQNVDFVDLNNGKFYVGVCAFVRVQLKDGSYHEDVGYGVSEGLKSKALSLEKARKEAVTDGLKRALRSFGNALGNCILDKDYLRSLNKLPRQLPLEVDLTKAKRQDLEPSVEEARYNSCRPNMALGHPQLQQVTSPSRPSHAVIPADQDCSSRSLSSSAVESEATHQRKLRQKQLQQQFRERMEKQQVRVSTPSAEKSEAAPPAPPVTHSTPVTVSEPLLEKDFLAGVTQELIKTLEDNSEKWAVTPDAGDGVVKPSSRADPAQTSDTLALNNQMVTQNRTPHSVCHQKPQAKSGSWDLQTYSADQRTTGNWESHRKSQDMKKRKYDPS

[29] = target: Tumor necrosis factor (Homo sapiens, UniProt P01375); assay: TNFa-triggered NF-kB activation inhibitors, SAR follow-up, cell-based, revised (AID 2337); type: functional
[30] = target: T5, Nucleotide-binding oligomerization domain-containing protein 1 (Homo sapiens, UniProt Q9Y239); assay: NOD1 signaling inhibitors, SAR follow-up, revised (AID 2333); type: functional
T5 sequence (Q9Y239 whole entry): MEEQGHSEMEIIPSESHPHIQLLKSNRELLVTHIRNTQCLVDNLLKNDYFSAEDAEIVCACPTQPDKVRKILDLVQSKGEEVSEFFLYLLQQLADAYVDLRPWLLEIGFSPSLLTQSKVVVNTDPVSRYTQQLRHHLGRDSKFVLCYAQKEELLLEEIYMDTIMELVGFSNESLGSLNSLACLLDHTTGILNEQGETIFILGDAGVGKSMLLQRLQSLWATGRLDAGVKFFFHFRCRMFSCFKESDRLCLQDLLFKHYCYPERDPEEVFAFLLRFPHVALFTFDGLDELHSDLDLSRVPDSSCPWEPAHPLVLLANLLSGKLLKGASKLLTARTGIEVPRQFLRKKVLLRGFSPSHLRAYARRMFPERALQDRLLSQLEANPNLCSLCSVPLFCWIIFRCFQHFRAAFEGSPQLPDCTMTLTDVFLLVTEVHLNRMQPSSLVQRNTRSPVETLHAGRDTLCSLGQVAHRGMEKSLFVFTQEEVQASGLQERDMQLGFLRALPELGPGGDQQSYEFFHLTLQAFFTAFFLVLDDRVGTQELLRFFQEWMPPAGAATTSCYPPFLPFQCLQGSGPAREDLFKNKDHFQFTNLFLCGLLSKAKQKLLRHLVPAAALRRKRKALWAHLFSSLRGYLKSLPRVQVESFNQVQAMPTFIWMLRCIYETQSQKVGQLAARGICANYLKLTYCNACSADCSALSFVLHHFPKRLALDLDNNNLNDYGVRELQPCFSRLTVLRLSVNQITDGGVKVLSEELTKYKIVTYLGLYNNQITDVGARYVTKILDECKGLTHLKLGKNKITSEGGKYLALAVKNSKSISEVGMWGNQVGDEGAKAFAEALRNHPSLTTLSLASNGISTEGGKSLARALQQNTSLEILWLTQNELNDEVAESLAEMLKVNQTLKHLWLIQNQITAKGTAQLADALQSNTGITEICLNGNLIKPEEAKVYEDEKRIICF

[31] = system: HEK293; assay: NOD1 signaling inhibitors, primary screen, cell-based, luminescence, uHTS (AID 1578); type: functional; details: Homo sapiens
[32] = system: HEK293; assay: cells; type: functional, cell-based; details: Homo sapiens
[33] = system: HEK293; assay: cells; type: functional, cell-based; details: Homo sapiens; remark: listed apart in the source
[34] = system: HEK293; assay: cells; details: Homo sapiens
[35] = system: HEK293; assay: NOD2 signaling inhibitors in MDP-stimulated cells, cell-based, uHTS, luminescence (AID 2001); type: functional; details: Homo sapiens
[36] = target: T6, X-box-binding protein 1 (Homo sapiens, UniProt P17861); type: functional, Cricetulus griseus;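 also: confirmatory dose-response counter-screen serving a CHOP assay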
T6 sequence (P17861 whole entry): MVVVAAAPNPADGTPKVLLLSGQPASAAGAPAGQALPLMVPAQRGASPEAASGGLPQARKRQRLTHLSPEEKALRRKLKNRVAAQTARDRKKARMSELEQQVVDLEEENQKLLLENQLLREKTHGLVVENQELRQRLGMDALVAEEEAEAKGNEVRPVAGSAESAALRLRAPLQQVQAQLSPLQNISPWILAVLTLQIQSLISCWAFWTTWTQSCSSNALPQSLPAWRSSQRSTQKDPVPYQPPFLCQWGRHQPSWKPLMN

[37] = target: Neurotensin receptor type 1 (Homo sapiens, UniProt P30989); type: functional;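 also: Image-based confirmatory dose-response assay measuring agonist activity at NTR1; NTR1-expressing U2OS osteosarcoma cells imaged for beta-arrestin GFP spot formation; agonist potency where compounds increase beta-arrestin recruitment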

Luciferin 4-monooxygenase, sequence (P08659 whole entry): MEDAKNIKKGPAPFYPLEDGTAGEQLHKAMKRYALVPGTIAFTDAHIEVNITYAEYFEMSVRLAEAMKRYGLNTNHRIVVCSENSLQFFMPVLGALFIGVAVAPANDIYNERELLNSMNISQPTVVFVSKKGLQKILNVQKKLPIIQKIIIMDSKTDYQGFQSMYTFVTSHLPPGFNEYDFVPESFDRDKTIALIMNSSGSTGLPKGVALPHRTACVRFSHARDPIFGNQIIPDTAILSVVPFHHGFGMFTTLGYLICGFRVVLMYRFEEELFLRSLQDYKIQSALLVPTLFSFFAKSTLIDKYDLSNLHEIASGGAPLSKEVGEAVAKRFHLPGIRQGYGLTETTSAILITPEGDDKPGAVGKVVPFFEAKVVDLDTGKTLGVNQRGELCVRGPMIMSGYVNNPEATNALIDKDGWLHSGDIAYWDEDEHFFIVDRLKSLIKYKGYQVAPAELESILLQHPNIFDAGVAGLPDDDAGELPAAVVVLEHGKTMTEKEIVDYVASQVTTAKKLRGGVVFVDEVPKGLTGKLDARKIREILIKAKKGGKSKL
DNA dC->dU-editing enzyme APOBEC-3G, sequence (Q9HC16 whole entry): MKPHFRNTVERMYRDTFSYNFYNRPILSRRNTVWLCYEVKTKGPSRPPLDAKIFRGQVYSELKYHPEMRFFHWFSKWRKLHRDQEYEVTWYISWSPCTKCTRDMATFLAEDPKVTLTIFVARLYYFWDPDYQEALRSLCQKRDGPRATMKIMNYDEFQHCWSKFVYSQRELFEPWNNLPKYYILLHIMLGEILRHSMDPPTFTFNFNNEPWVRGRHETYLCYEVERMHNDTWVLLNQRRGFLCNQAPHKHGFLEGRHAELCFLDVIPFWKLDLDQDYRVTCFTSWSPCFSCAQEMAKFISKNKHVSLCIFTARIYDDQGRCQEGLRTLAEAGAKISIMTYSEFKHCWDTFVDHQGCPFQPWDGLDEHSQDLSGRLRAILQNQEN
Peroxisome proliferator-activated receptor gamma/Nuclear receptor coactivator 1, sequence (P37231 whole entry): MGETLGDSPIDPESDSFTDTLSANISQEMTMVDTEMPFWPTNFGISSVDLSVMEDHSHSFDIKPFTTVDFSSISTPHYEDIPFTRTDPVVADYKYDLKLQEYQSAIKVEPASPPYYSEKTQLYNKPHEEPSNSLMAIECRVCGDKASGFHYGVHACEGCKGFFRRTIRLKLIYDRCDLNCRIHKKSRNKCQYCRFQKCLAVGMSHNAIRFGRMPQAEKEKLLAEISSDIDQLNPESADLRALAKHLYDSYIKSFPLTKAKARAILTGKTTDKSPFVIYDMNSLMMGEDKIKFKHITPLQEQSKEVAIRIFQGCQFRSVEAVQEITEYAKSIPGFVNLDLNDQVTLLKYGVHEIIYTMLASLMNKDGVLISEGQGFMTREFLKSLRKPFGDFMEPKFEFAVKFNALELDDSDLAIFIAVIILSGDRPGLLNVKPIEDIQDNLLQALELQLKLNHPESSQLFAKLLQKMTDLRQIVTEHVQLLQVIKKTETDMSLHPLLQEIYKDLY
Peroxisome proliferator-activated receptor gamma/Nuclear receptor coactivator 1, sequence (Q15788 whole entry, further chain): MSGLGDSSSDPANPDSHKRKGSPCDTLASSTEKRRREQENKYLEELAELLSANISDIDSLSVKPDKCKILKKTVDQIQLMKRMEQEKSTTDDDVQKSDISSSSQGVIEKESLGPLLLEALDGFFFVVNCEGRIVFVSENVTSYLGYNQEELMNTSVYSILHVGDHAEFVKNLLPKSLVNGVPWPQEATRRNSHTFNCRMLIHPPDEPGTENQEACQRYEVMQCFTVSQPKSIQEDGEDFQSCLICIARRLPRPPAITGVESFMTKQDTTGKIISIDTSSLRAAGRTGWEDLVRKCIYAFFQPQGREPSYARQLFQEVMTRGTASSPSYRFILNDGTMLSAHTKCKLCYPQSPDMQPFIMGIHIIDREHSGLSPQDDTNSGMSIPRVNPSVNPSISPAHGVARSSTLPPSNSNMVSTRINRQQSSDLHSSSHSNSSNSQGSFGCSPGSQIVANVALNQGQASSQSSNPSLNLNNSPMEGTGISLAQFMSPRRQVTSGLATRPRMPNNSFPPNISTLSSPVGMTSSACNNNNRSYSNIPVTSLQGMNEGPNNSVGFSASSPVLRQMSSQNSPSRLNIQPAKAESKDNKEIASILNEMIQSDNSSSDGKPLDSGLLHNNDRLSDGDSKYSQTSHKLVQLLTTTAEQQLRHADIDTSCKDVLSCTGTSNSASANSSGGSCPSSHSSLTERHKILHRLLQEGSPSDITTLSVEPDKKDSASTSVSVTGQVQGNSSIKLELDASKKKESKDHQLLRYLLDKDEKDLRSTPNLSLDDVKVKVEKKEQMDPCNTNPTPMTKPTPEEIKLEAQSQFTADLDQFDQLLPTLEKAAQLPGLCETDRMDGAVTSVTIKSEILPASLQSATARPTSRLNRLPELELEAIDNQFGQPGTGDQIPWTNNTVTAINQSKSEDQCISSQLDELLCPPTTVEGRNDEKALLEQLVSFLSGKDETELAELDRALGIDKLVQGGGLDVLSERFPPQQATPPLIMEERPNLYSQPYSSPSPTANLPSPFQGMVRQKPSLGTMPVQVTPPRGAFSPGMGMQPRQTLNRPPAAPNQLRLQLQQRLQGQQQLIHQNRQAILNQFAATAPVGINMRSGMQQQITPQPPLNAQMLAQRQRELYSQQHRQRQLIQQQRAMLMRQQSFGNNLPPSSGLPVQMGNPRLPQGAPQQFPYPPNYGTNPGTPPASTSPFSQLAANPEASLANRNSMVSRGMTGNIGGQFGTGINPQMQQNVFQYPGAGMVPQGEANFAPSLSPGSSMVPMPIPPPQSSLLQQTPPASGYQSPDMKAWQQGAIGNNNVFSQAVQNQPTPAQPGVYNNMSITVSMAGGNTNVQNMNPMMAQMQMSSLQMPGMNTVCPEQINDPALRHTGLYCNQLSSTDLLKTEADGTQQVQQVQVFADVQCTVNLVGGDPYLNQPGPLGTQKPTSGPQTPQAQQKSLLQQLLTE
Peroxisome proliferator-activated receptor gamma/Nuclear receptor coactivator 3, sequence (P37231 whole entry): as the sequence (P37231 whole entry) above
Peroxisome proliferator-activated receptor gamma/Nuclear receptor coactivator 3, sequence (Q9Y6Q9 whole entry, further chain): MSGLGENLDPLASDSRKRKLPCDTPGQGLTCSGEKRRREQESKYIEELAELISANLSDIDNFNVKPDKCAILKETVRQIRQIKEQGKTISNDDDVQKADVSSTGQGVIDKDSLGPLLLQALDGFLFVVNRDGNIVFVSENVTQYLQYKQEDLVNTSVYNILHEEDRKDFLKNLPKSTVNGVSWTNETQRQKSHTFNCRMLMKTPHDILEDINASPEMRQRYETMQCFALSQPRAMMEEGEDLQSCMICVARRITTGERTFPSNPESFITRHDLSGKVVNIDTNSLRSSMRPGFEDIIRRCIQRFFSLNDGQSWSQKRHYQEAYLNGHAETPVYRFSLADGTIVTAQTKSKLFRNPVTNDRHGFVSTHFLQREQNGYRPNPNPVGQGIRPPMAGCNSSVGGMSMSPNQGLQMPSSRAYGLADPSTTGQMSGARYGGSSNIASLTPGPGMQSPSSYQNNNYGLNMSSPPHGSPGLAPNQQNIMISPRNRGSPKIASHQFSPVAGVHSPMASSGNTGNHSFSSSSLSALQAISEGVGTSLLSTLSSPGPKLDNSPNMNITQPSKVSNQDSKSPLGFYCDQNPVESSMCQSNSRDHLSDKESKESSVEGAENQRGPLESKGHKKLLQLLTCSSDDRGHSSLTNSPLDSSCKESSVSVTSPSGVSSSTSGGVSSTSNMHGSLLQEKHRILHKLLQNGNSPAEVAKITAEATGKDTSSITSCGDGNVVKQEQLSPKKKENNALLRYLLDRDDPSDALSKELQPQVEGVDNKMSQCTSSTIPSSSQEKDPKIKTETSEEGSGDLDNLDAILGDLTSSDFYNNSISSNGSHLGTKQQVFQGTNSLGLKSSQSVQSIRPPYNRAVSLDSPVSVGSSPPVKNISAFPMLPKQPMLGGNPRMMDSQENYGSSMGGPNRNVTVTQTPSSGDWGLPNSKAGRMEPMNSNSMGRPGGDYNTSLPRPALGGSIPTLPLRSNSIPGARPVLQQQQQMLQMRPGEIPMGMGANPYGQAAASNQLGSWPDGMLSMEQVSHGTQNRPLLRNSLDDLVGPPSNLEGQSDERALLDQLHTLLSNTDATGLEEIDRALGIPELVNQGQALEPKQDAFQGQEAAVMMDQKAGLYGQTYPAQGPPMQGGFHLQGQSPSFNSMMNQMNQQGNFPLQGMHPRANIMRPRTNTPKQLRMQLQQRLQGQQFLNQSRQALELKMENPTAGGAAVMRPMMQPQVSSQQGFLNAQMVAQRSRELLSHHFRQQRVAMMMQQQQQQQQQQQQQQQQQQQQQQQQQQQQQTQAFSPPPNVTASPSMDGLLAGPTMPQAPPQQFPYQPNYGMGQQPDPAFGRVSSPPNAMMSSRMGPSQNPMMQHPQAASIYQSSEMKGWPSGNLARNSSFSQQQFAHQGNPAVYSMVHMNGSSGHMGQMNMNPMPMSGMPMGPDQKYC
Tumor necrosis factor, sequence (P01375 whole entry, the tested form may be a part): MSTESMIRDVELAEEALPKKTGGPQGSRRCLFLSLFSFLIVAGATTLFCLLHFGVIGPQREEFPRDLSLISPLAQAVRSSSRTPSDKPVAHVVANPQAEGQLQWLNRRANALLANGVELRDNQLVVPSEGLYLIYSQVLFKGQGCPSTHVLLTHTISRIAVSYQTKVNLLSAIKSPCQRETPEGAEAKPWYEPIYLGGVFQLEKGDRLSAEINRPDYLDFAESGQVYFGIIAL

## CCOc1ccc(N(Cc2ccc(OC)cc2)C(=O)c2ccco2)cc1
[1]
  AC50: 4.23 µM (active)

## Cc1ccccc1C(=O)N/N=C/c1ccc([N+](=O)[O-])s1
[2]
  EC50: > 50 µM (not active)
[3]
  AC50: 1.88 µM (active)
[4]
  EC50: 11 µM (active)

## Cn1cnnc1SCc1ccc(C(=O)N=Nc2c(O)n(C)c3ccccc23)cc1
[5]
  EC50: > 79.4 µM (not active)
[6]
  EC50: > 79.4 µM (not active)
[7]
  EC50: > 79.4 µM (not active)

## O=C(CSc1nnc(-c2ccccc2)o1)Nc1ccccc1F
[8]
  EC50: 8.39 µM (active)
[2]
  EC50: > 50 µM (not active)
[9]
  EC50: 7.86 µM (active)
[10]
  EC50: > 150 µM (inconclusive)
[11]
  EC50: 1.07 µM (active)
[12]
  EC50: 11.5 µM (active)
[13]
  IC50: > 100 µM (not active)
[14]
  EC50: 1.21 µM (active)
[15]
  EC50: 4.09 µM (inconclusive)
[4]
  EC50: 2.93 µM (active)

## Cc1cc(-c2csc(N)n2)c(C)n1CCc1ccccc1
[2]
  EC50: > 50 µM (not active)
[16]
  EC50: > 29.9 µM (inactive)
[17]
  EC50: 0.449 µM (active)
[18]
  IC50: 3.8 µM (active)
[19]
  IC50: > 29.9 µM (inactive)
[4]
  EC50: 0.38 µM (active)

## Cc1[nH]c2ccccc2c1C(=O)C(=O)NCCOc1ccccc1
[5]
  EC50: > 79.4 µM (not active)
[6]
  EC50: > 79.4 µM (not active)
[7]
  EC50: > 79.4 µM (not active)

## O=C(O)CCSc1nc2cc(Br)ccc2[nH]1
[20]
  EC50: > 20 µM (not active)
[21]
  EC50: > 20 µM (not active)

## O=C(Nc1ncc(Cc2ccccc2Cl)s1)C1=NCCN1
[22]
  CC50: > 40 µM (active)
[23]
  CC50: > 20 µM (active)
[24]
  CC50: > 40 µM (active)
[25]
  IC50: 4.03 µM (active)

## CCCCCC(=O)N(O)C1CC(=O)N(c2ccccc2)C1=O (stereo unspecified)
[26]
  IC50: 59.7 µM (active)
[27]
  AC50: 4.5 µM (active)

## CCN(CC)CCn1c2ccccc2c2nnc(S)nc21
[26]
  IC50: 19.5 µM (active)
[28]
  AC50: 5.41 µM (active)

## Oc1nc(/C=C/c2ccccc2C(F)(F)F)cc(C(F)(F)F)n1
[29]
  IC50: 11.3 µM (active)
[30]
  IC50: 3.82 µM (active)
[31]
  EC50: 9.79 µM (active)
[32]
  IC50: > 20 µM (inactive)
[33]
  IC50: > 20 µM (inactive)
[34]
  IC50: > 20 µM (inactive)
[35]
  IC50: 13.3 µM (inactive)

## CCOc1cc(NC(=O)c2cccs2)c(OCC)cc1N=C(S)NCC(C)C
[36]
  Absolute IC50 (XBP1): 10 µM

## CC1CCc2c(sc3ncn(CC(=O)N=Nc4c(O)[nH]c5ccccc45)c(=O)c23)C1 (stereo unspecified)
[36]
  Absolute IC50 (XBP1): 10 µM

## C=CCn1/c(=N/C(=O)c2cccc(N3C(=O)CCC3=O)c2)sc2cccc(OC)c21
[37]
  EC50: > 40 µM (inactive)

Reference: ChEMBL document CHEMBL1201862, “PubChem BioAssay data set” (2004)
